Values joined by “and” are separate entries in the source; they are usually repeats but may differ in a detail not shown here. Equal entries are not always repeated.
Tests used:
[1] = tested on: Staphylococcus aureus (ATCC25923); assay: Microdilution MIC assay (CLSI-based), S. aureus; format: cell-based; settings: Staphylococcus aureus, ATCC25923, 20 h, 20 hours incubation at 35-37° C., MHB; read-out: Minimum inhibitory concentration S. aureus ATCC25923
How it was run: (§1)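 Broth microdilution per modified CLSI guidelines in Mueller Hinton broth, 200 μL, inoculum ca. 5×10^5 CFU/mL; compounds tested as salts, twofold dilutions from 0.2 mg/mL, in triplicate. MIC determined from OD at 620 nm after incubation.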

[2] = tested on: Enterococcus faecalis (ATCC29212); assay: Microdilution MIC assay (CLSI-based), E. faecalis; format: cell-based; settings: Enterococcus faecalis, ATCC29212, 20 h, 20 hours incubation at 35-37° C., MHB; read-out: Minimum inhibitory concentration E. faecalis ATCC29212
How it was run: as §1

[3] = tested on: Escherichia coli (ATCC28922); assay: Microdilution MIC assay (CLSI-based), E. coli; format: cell-based; settings: Escherichia coli, ATCC28922, 20 h, 20 hours incubation at 35-37° C., MHB; read-out: Minimum inhibitory concentration E. coli ATCC28922
How it was run: as §1

[4] = tested on: Pseudomonas aeruginosa (ATCC27853); assay: Microdilution MIC assay (CLSI-based), P. aeruginosa; format: cell-based; settings: Pseudomonas aeruginosa, ATCC27853, 20 h, 20 hours incubation at 35-37° C., MHB; read-out: Minimum inhibitory concentration P. aeruginosa ATCC27853
How it was run: as §1

[5] = tested on: CHO-K1 cells; assay: WST1 cytotoxicity test; format: cell-based, Chinese hamster; settings: Cricetulus griseus, CHO-K1, 24 h, WST1, 24 hours at 37° C.; read-out: IC50 CHO
How it was run: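 CHO-K1 cells pre-cultured 24 h, then exposed 24 h at 37 °C to increasing compound concentrations. Viability read as WST-1 formazan absorbance at 450 nm after 20 min; dose-response fitted by nonlinear regression.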

With `COC(=O)[C@H](Cc1ccccc1)NC(=O)CC[C@@H](C)[C@H]1CCC2C3C(CC[C@@]21C)[C@@]1(C)CC[C@H](NCCCNCCNCCCN)C[C@H]1C[C@H]3O` (stereo partly drawn) [Compound S029, methyl ((4R)-4-((3S,5S,7R,10S,13R,17R)-3-((3-((2-((3-aminopropyl)amino)ethyl)amino)propyl)amino)-7-hydroxy-10,13-dimethylhexadecahydro-1H-cyclopenta[a]phenanthren-17-yl)pentanoyl)-L-phenylalaninate] the MIC [1] was 12.5 µM and 8 µg/mL, the MIC [2] was 12.5 µM and 8 µg/mL and the MIC [3] was 50 µM and 32 µg/mL. The MIC [4] was 50 µM and 32 µg/mL and the IC50 [5] was 47.8 µM and 33.9 µg/mL.
`COC(=O)[C@H](C)NC(=O)CC[C@@H](C)[C@H]1CCC2C3C(CC[C@@]21C)[C@@]1(C)CC[C@H](NCCCNCCCCNCCCN)C[C@H]1C[C@H]3O` (stereo partly drawn) [Compound S038, methyl ((4R)-4-((3S,5S,7R,10S,13R,17R)-3-((3-((4-((3-aminopropyl)amino)butyl)amino)propyl)amino)-7-hydroxy-10,13-dimethylhexadecahydro-1H-cyclopenta[a]phenanthren-17-yl)pentanoyl)-L-alaninate] was tested, and the MIC [1] was 3.13 µM and 2 µg/mL, the MIC [2] was 6.25 µM and 4 µg/mL and the MIC [3] was 6.25 µM and 4 µg/mL. For the same compound, the MIC [4] was 12.5 µM and 8 µg/mL and the IC50 [5] was 45 µM and 29.8 µg/mL.
For `COC(=O)[C@H](NC(=O)CC[C@@H](C)[C@H]1CCC2C3C(CC[C@@]21C)[C@@]1(C)CC[C@H](NCCNCCNCCN)C[C@H]1C[C@H]3O)C(C)C` (stereo partly drawn) [Compound S012, methyl ((4R)-4-((3S,5S,7R,10S,13R,17R)-3-((2-((2-((2-aminoethyl)amino)ethyl)amino)ethyl)amino)-7-hydroxy-10,13-dimethylhexadecahydro-1H-cyclopenta[a]phenanthren-17-yl)pentanoyl)-D-valinate], the MIC [1] was 50 µM and 32 µg/mL, the MIC [2] was 25 µM and 16 µg/mL and the MIC [3] was 100 µM and 64 µg/mL. The MIC [4] was 100 µM and 64 µg/mL and the IC50 [5] was 101 µM and 64.2 µg/mL.
For `COC(=O)[C@@H](NC(=O)CC[C@@H](C)[C@H]1CCC2C3C(CC[C@@]21C)[C@@]1(C)CC[C@H](NCCNCCNCCNCCN)C[C@H]1C[C@H]3O)C(C)C` (stereo partly drawn) [Compound S049, methyl ((4R)-4-((3S,5S,7R,10S,13R,17R)-3-((2-((2-((2-((2-aminoethyl)amino)ethyl)amino)ethyl)amino)ethyl)amino)-7-hydroxy-10,13-dimethylhexadecahydro-1H-cyclopenta[a]phenanthren-17-yl)pentanoyl)-L-valinate], the MIC [1] was 50 µM and 32 µg/mL, the MIC [2] was 100 µM and 64 µg/mL and the MIC [3] was 100 µM and 64 µg/mL. For the same compound, the MIC [4] was 100 µM and 64 µg/mL and the IC50 [5] was 94.9 µM and 64.2 µg/mL.
With `COC(=O)[C@@H](NC(=O)CC[C@@H](C)[C@H]1CCC2C3CC[C@@H]4C[C@@H](NCCCNCCCCNCCCN)CC[C@]4(C)C3CC[C@@]21C)C(C)C` (stereo partly drawn) [Compound S057, methyl ((4R)-4-((3S,5R,10S,13R,17R)-3-((3-((4-((3-aminopropyl)amino)butyl)amino)propyl)amino)-10,13-dimethylhexadecahydro-1H-cyclopenta[a]phenanthren-17-yl)pentanoyl)-L-valinate] the MIC [1] was 3.12 µM and 2 µg/mL, the MIC [2] was 3.12 µM and 2 µg/mL and the MIC [3] was 3.12 µM and 2 µg/mL. The MIC [4] was 6.25 µM and 4 µg/mL and the IC50 [5] was 30.2 µM and 20.4 µg/mL.
For `COC(=O)[C@H](NC(=O)CC[C@@H](C)[C@H]1CCC2C3CC[C@@H]4C[C@@H](NCCCN(CCCN)CCCN)CC[C@]4(C)C3C[C@H](O)[C@@]21C)C(C)C` (stereo partly drawn) [Compound S054, methyl ((4R)-4-((3S,5R,10S,12S,13R,17R)-3-((3-(bis(3-aminopropyl)amino)propyl)amino)-12-hydroxy-10,13-dimethylhexadecahydro-1H-cyclopenta[a]phenanthren-17-yl)pentanoyl)-D-valinate], the MIC [1] was 6.25 µM and 4 µg/mL, the MIC [2] was 100 µM and 64 µg/mL and the MIC [3] was 50 µM and 32 µg/mL. For the same compound, the MIC [4] was 100 µM and 64 µg/mL and the IC50 [5] was > 100 µM and > 67 µg/mL.
`COC(=O)[C@H](Cc1ccc(O)cc1)NC(=O)CC[C@@H](C)[C@H]1CCC2C3C(CC[C@@]21C)[C@@]1(C)CC[C@H](NCCCNCCCN)C[C@H]1C[C@H]3O` (stereo partly drawn) [Compound S040, methyl ((4R)-4-((3S,5S,7R,10S,13R,17R)-3-((3-((3-aminopropyl)amino)propyl)amino)-7-hydroxy-10,13-dimethylhexadecahydro-1H-cyclopenta[a]phenanthren-17-yl)pentanoyl)-L-tyrosinate] was tested, and the MIC [1] was 25 µM and 16 µg/mL, the MIC [2] was 25 µM and 16 µg/mL and the MIC [3] was 50 µM and 32 µg/mL. For the same compound, the MIC [4] was 50 µM and 32 µg/mL and the IC50 [5] was 155 µM and 106 µg/mL.
`COC(=O)CNC(=O)CC[C@@H](C)[C@H]1CCC2C3C(CC[C@@]21C)[C@@]1(C)CC[C@H](NCCCN2CCN(CCCN)CC2)C[C@H]1C[C@H]3O` (stereo partly drawn) [Compound S006, methyl ((4R)-4-((3S,5S,7R,10S,13R,17R)-3-((3-(4-(3-aminopropyl)piperazin-1-yl)propyl)amino)-7-hydroxy-10,13-dimethylhexadecahydro-1H-cyclopenta[a]phenanthren-17-yl)pentanoyl)glycinate] was tested, and the MIC [1] was 25 µM and 16 µg/mL, the MIC [2] was > 200 µM and > 128 µg/mL and the MIC [3] was > 200 µM and > 128 µg/mL. For the same compound, the MIC [4] was > 200 µM and > 128 µg/mL and the IC50 [5] was 73.6 µM and 47.7 µg/mL.
For `COC(=O)[C@H](NC(=O)CC[C@@H](C)[C@H]1CCC2C3C(CC[C@@]21C)[C@@]1(C)CC[C@H](NCCCNCCCNCCCN)C[C@H]1C[C@H]3O)C(C)C` (stereo partly drawn) [Compound S011, methyl ((4R)-4-((3S,5S,7R,10S,13R,17R)-3-((3-((3-((3-aminopropyl)amino)propyl)amino)propyl)amino)-7-hydroxy-10,13-dimethylhexadecahydro-1H-cyclopenta[a]phenanthren-17-yl)pentanoyl)-D-valinate], the MIC [1] was 12.5 µM and 8 µg/mL, the MIC [2] was 25 µM and 16 µg/mL and the MIC [3] was 12.5 µM and 8 µg/mL. For the same compound, the MIC [4] was 25 µM and 16 µg/mL and the IC50 [5] was 1.17 µM and 0.79 µg/mL.
With `COC(=O)[C@H](NC(=O)CC[C@@H](C)[C@H]1CCC2C3C(C[C@H](O)[C@@]21C)[C@@]1(C)CC[C@H](NCCCN2CCN(CCCN)CC2)C[C@H]1C[C@H]3O)C(C)C` (stereo partly drawn) [Compound S059, methyl ((4R)-4-((3S,5S,7R,10S,12S,13R,17R)-3-((3-(4-(3-aminopropyl)piperazin-1-yl)propyl)amino)-7,12-dihydroxy-10,13-dimethylhexadecahydro-1H-cyclopenta[a]phenanthren-17-yl)pentanoyl)-D-valinate] the MIC [1] was 50 µM and 32 µg/mL, the MIC [2] was > 200 µM and > 128 µg/mL and the MIC [3] was 200 µM and 128 µg/mL. The MIC [4] was > 200 µM and > 128 µg/mL and the IC50 [5] was 56.1 µM and 39.5 µg/mL.
With `COC(=O)[C@@H](NC(=O)CC[C@@H](C)[C@H]1CC[C@H]2[C@@H]3[C@H](O)C[C@@H]4CC(NCCCN(CCCN)CCCN)CC[C@]4(C)[C@H]3CC[C@]12C)C(C)C` (mixture of isomers) [Compound S003, methyl ((4R)-4-((3S,5S,7R,10S,13R,17R)-3-((3-(bis(3-aminopropyl)amino)propyl)amino)-7-hydroxy-10,13-dimethylhexadecahydro-1H-cyclopenta[a]phenanthren-17-yl)pentanoyl)valinate] the MIC [1] was 6.25 µM and 4 µg/mL, the MIC [2] was 50 µM and 32 µg/mL and the MIC [3] was 100 µM and 64 µg/mL. For the same compound, the MIC [4] was 100 µM and 64 µg/mL and the IC50 [5] was 165 µM and 111 µg/mL.
In the case of `COC(=O)[C@H](Cc1ccccc1)NC(=O)CC[C@@H](C)[C@H]1CCC2C3C(CC[C@@]21C)[C@@]1(C)CC[C@H](NCCNCCN)C[C@H]1C[C@H]3O` (stereo partly drawn) [Compound S024, methyl ((4R)-4-((3S,5S,7R,10S,13R,17R)-3-((2-((2-aminoethyl)amino)ethyl)amino)-7-hydroxy-10,13-dimethylhexadecahydro-1H-cyclopenta[a]phenanthren-17-yl)pentanoyl)-L-phenylalaninate], the MIC [1] is reported as 25 µM and 16 µg/mL, the MIC [2] is reported as 25 µM and 16 µg/mL and the MIC [3] is reported as 25 µM and 16 µg/mL. For the same compound, the MIC [4] was 100 µM and 64 µg/mL and the IC50 [5] was 83.7 µM and 53.5 µg/mL.
`COC(=O)[C@H](CC(C)C)NC(=O)CC[C@@H](C)[C@H]1CCC2C3C(CC[C@@]21C)[C@@]1(C)CC[C@H](NCCCNCCNCCCN)C[C@H]1C[C@H]3O` (stereo partly drawn) [Compound S035, methyl ((4R)-4-((3S,5S,7R,10S,13R,17R)-3-((3-((2-((3-aminopropyl)amino)ethyl)amino)propyl)amino)-7-hydroxy-10,13-dimethylhexadecahydro-1H-cyclopenta[a]phenanthren-17-yl)pentanoyl)-L-leucinate] was tested, and the MIC [1] was 12.5 µM and 8 µg/mL, the MIC [2] was 12.5 µM and 8 µg/mL and the MIC [3] was 12.5 µM and 8 µg/mL. For the same compound, the MIC [4] was 12.5 µM and 8 µg/mL and the IC50 [5] was 45.2 µM and 30.6 µg/mL.
